According to patent US11993594B2, “IRAK inhibitors and method for making and using” (Rigel Pharmaceuticals, Inc., priority 2016, dated 2024):
Read-outs that look alike come from different tables or passages of the source.

Legend:
[1] = test system: LPS induced IL-23 (p19/p40) in DC cells; test: IL23-p19 ELISA, dendritic (DC) cells differentiated from human PBMC, LPS stimulated; type: cell-based; settings: LPS 1 μg/ml, 18 hours, 10 pt
Description: Compound Screening Using DC Cells
Human PBMC cells (400 million) obtained from the vendor were transferred into a T-175 flask containing 15 ml RPMI media (10% FBS) and incubate for 2 hours at 37° C. After 2 hours, the media including floating cells was aspirated out carefully and 12 ml of fresh RPMI media (10% FBS) containing GMCSF (100 ng/ml) and IL4 (20 ng/ml) was added, and the flask was kept in a 37° C. incubator for 7 days.
After 3 days, fresh GMCSF (100 ng/ml) and IL4 (20 ng/ml) were added to the flask and the incubation continued. After 7 days, the fully differentiated cells were harvested by spinning down (1200 rpm/5 min) and aspirating the media. The cells were suspended in fresh RPMI media (10% FBS) containing 50 ng/ml IFNγ (1000 U/ml) and then plated (50K/well in 100 μl) onto a white clear bottom 96 well plate and left in a 37° C. incubator for 24 hours.
After 24 hours incubation, 100 μl of RPMI media was added containing 2× concentrated test compound per well to the above cell-culture media (final concentration becomes 1×) and the plates were pre-incubated for 1 hour at 37° C. before stimulating with LPS.
After 1 hour compound pre-incubation, 10 μl per well of 20× concentrated LPS solution in RPMI media was added to give a final concentration of 1 μg/ml. The mixture was shaken and incubated the plates at 37° C. for an additional 18 hours.
155 μl of the supernatant was harvested from each well carefully (without the tip touching the bottom of the well) and to the remaining 50 μl/well of the cell culture plate was added 50 μl of Cell Titer Glo reagent. The mixture was incubated for 1-2 minutes on a shaker and the plate was read for luminescence intensity to determine the compound cytotoxicity. The cell culture supernatant collected above was used to carry out IL23 ELISA (65 μl—Supernatant) and IL10 ELISA (90 μl—Supernatant) as described below.
Human IL-23 (p19/p40) ELISA Protocol (e-Biosciences)
To 10.5 ml PBS add 50 μl of anti-IL23 (p19) was added capture antibody (2.5 μg/ml). The mixture was mixed well and 100 μl of the coating solution was added to each well of the 96 well white plates from Pierce. The wells were covered and incubated overnight at 4° C.
The anti-IL23 (p19)-antibody-coated plates were washed 2× using TBST (use plate washer) and blocked using 200 μl of 0.5% Casein for 1.5 to 2 hours at room temperature with shaking.
The plates were washed 2× using TBST and the supernatant was transferred (65 μl/well) to the above pre-blocked/IL23(p19)-antibody-coated 96 well plate, and incubated at room temperature for 1.5 hours with shaking.
The plates were washed 4× using TBST (plate washer) and 100 μl/well detection antibody solution prepared from 2 μl of biotin labeled anti-IL-12 (p40/p70) antibody in 11 ml 1% BSA/PBS solution (1-5000 dilution) was added. The plates were incubated for 1 hour with shaking at Room temperature.
Again, the plates were washed 4× with TBST and 100 μl of HRP labeled Streptavidin (R&D Systems) solution (10 μl/10 ml 1% BSA solution) was added, and the plates were incubated at room temperature for another 45 minutes with shaking.
After 45 minutes, the plates were washed with TBST 4× and 100 μl/well Super Signal ELISA Pico Chemiluminescent Substrate from Pierce (3.5 ml A+3.5 ml B+3.5 ml MQ water) was added. The plates were shaken for 1-2 minutes then read on a plate reader. […]

[2] = test system: LPS Induced IL23p19 in THP-1 Cells; test: LPS Induced IL23p19 in THP-1 Cells (with IFNγ Primed) Assay; type: cell-based, human; settings: THP-1 cells primed with IFNγ 50 ng/mL, LPS 1 ug/mL, 18 hours, 10 pt, read-out: IL23-p19 ELISA, THP1-IFNγ, LPS, 10 pt EC50
How it was run: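 THP-1 cells (50K/well) are primed with IFNγ at 50 ng/mL for about 18 h. They are then pre-treated with compound for 1 h and stimulated with LPS at 1 ug/mL final for 18 h at 37 °C. Secreted IL-23p19 is measured by chemiluminescent sandwich ELISA and EC50 is derived by curve fitting, with Cell Titer Glo as a viability counter-screen.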

EC50 ([1]; Table 1, IFNγ 50 ng/ml)	EC50 ([2]; Homo sapiens, Table 1)	EC50 ([1]; Table 2, IFNγ 50 ng/ml)	EC50 ([2]; Table 1)	EC50 ([2]; Table 2)	EC50 ([1]; Table 3, IFNγ 50 ng/ml)	EC50 ([2]; Table 3)	Molecule
84.2 nM	–	84.2 nM	34.3 nM	34.3 nM	–	–	O=C(Nc1cn([C@H]2CC[C@H](N3CCOCC3)CC2)nc1-c1ncccn1)c1coc(-c2cn[nH]c2)n1 [Compound I-2, N-(1-((1r,4r)-4-morpholinocyclohexyl)-3-(pyrimidin-2-yl)-1H-pyrazol-4-yl)-2-(1H-pyrazol-4-yl)oxazole-4-carboxamide]
23.4 nM	59.1 nM	–	–	–	–	–	O=C(Nc1cn([C@H]2C[C@H](N3CCOCC3)C2)nc1-c1cnccn1)c1coc(-c2cn[nH]c2)n1 [Compound I-33, N-(1-((1r,3r)-3-morpholinocyclobutyl)-3-(pyrazin-2-yl)-1H-pyrazol-4-yl)-2-(1H-pyrazol-4-yl)oxazole-4-carboxamide]
–	–	–	–	–	217 nM	238 nM	N-(1-(2-(2-methoxyethoxy)ethyl)-3-(pyridin-2-yl)-1H-pyrazol-4-yl)-2-(1H-pyrazol-4-yl)oxazole-4-carboxamide [Compound I-24]
3.3 nM	–	3.3 nM	8.9 nM	8.9 nM	–	–	CCO[C@H]1CC[C@H](n2cc(NC(=O)c3coc(-c4cn[nH]c4)n3)c(-c3ncccn3)n2)CC1 [Compound I-3, N-(1-((1r,4r)-4-ethoxycyclohexyl)-3-(pyrimidin-2-yl)-1H-pyrazol-4-yl)-2-(1H-pyrazol-4-yl)oxazole-4-carboxamide]

Second part, the molecule before the results:

Molecule	EC50 ([1]; Table 1, IFNγ 50 ng/ml)	EC50 ([2]; Homo sapiens, Table 1)	EC50 ([1]; Table 2, IFNγ 50 ng/ml)	EC50 ([2]; Table 1)	EC50 ([2]; Table 2)	EC50 ([1]; Table 3, IFNγ 50 ng/ml)	EC50 ([2]; Table 3)
O=C(Nc1cn(C2CCC(N3CCOCC3)CC2)nc1-c1cnccn1)c1coc(-c2cn[nH]c2)n1 (stereo not shown) [Compound I-30, N-(1-((1r,4r)-4-morpholinocyclohexyl)-3-(pyrazin-2-yl)-1H-pyrazol-4-yl)-2-(1H-pyrazol-4-yl)oxazole-4-carboxamide]	6.5 nM	2.8 nM	–	–	–	–	–
CCOC1CCC(n2cc(NC(=O)c3coc(-c4cnn(COP(=O)(O)O)c4)n3)c(-c3cnccn3)n2)CC1 (stereo not shown) [Compound I-18, sodium (4-(4-((1-((1r,4r)-4-ethoxycyclohexyl)-3-(pyrazin-2-yl)-1H-pyrazol-4-yl)carbamoyl)oxazol-2-yl)-1H-pyrazol-1-yl)methyl phosphate]	25.6 nM	–	25.6 nM	83.3 nM	83.3 nM	–	–
CCO[C@H]1CC[C@H](n2cc(NC(=O)c3coc(-c4cnn(COP(=O)(O)O)c4)n3)c(-c3nc(F)ccc3F)n2)CC1 [Compound I-12, (4-(4-((3-(3,6-difluoropyridin-2-yl)-1-((1r,4r)-4-ethoxycyclohexyl)-1H-pyrazol-4-yl)carbamoyl)oxazol-2-yl)-1H-pyrazol-1-yl)methyl dihydrogen phosphate]	2400 nM	–	2400 nM	177 nM	177 nM	–	–
O=C(Nc1cn([C@H]2CC[C@H](N3CCOCC3)CC2)nc1-c1cccc(C(F)F)n1)c1coc(-c2cn[nH]c2)n1 [Compound I-4, N-(3-(6-(difluoromethyl)pyridin-2-yl)-1-((1r,4r)-4-morpholinocyclohexyl)-1H-pyrazol-4-yl)-2-(1H-pyrazol-4-yl)oxazole-4-carboxamide]	20.1 nM	–	20.1 nM	6.3 nM	6.3 nM	–	–
O=C(Nc1cn(C2CCOCC2)nc1-c1ccccn1)c1coc(-c2cn[nH]c2)n1 [Compound I-20, 2-(1H-pyrazol-4-yl)-N-(3-(pyridin-2-yl)-1-(tetrahydro-2H-pyran-4-yl)-1H-pyrazol-4-yl)oxazole-4-carboxamide]	–	–	–	–	–	135 nM	39.9 nM
